Reference: patent US9751837B2, “Kinase inhibitors” (RESPIVERT LIMITED, priority 2014, dated 2017)

Tested on: Jurkat cells
Experiment: Cell cytotoxicity assay (r)
Type: cell-based, human
Details: 24 hours
Procedure: 1×10^5 Jurkat cells (immortalised human T lymphocytes) are added to the appropriate number of wells of a 96 well plate in 100 μL of media (RPMI supplemented with 10% foetal bovine serum). 1 μL of DMSO control (final concentration 1.0% v/v) or test compound (final concentration 20, 5 or 1 μg/mL) is added to the wells and incubated at 37° C., 5% CO2. After 24 hours, the plate is centrifuged at 1200 rpm for 3 minutes and the supernatant discarded. Cells are then resuspended in 150 μL (final concentration 7.5 μg/mL) of propidium iodide (PI) in PBS and incubated at 37° C., 5% CO2 for 15 minutes. After 15 minutes, cells are analysed by flow cytometry (BD accuri) using the FL3 window. The % viability is calculated as the % of cells that are PI negative in the test wells normalised to the DMSO control.

COc1cc(Nc2cc(Oc3ccc(NC(=O)Nc4cc(C(C)(C)C)cc(NS(C)(=O)=O)c4OC)c4ccccc34)ccn2)ccc1S(=O)(=O)N(C)CCCN1CCN(C)CC1 [Example 25, 4-((4-((4-(3-(5-(tert-Butyl)-2-methoxy-3-(methylsulfonamido)phenyl)ureido)naphthalen-1-yl)oxy)pyridin-2-yl)amino)-2-methoxy-N-methyl-N-(3-(4-methylpiperazin-1-yl)propyl)benzenesulfonamide]
% Viability at 20 μg/mL: 0.7%

COc1cc(Nc2cc(Oc3ccc(NC(=O)Nc4cc(C(C)(C)C)cc(NS(C)(=O)=O)c4OC)c4ccccc34)ccn2)ccc1C(=O)NCCCCCN(C)C [17(bd), 4-((4-((4-(3-(5-(tert-Butyl)-2-methoxy-3-(methylsulfonamido)phenyl)ureido)naphthalen-1-yl)oxy)pyridin-2-yl)amino)-N-(5-(dimethylamino)pentyl)-2-methoxybenzamide]
% Viability at 20 μg/mL: 0.1%

COc1cc(Nc2cc(Oc3ccc(NC(=O)Nc4cc(C(C)(C)C)cc(NS(C)(=O)=O)c4OC)c4ccccc34)ccn2)ccc1S(=O)(=O)CCCN1CCN(C)CC1 [17(ch), N-(5-(tert-Butyl)-2-methoxy-3-(3-(4-((2-((3-methoxy-4-((3-(4-methylpiperazin-1-yl)propyl)sulfonyl)phenyl)amino)pyridin-4-yl)oxy)naphthalen-1-yl)ureido)phenyl)methanesulfonamide]
% Viability at 1 μg/mL: 82.0% | % Viability at 20 μg/mL: 0.7%

COc1cc(Nc2cc(Oc3ccc(NC(=O)Nc4cc(C(C)(C)C)cc(NS(C)(=O)=O)c4OC)c4ccccc34)ccn2)ccc1C(=O)NCCN1CC[C@@H](O)C1 [17(cr), (R)-4-((4-((4-(3-(5-(tert-Butyl)-2-methoxy-3-(methylsulfonamido)phenyl)ureido)-naphthalen-1-yl)oxy)pyridin-2-yl)amino)-N-(2-(3-hydroxypyrrolidin-1-yl)ethyl)-2-methoxybenzamide]
% Viability at 5 μg/mL: 18.0% | % Viability at 20 μg/mL: 0.9%

COc1cc(Nc2cc(Oc3ccc(NC(=O)Nc4cc(C(C)(C)C)cc(NS(C)(=O)=O)c4OC)c4ccccc34)ccn2)ccc1C(=O)NCCC1CCNCC1 [Example 27, 4-((4-((4-(3-(5-(tert-Butyl)-2-methoxy-3-(methylsulfonamido)phenyl)ureido)naphthalen-1-yl)oxy)pyridin-2-yl)amino)-2-methoxy-N-(2-(piperidin-4-yl)ethyl)benzamide]
% Viability at 20 μg/mL: 1.7%

COc1cc(Nc2cc(Oc3ccc(NC(=O)Nc4cc(NS(C)(=O)=O)cc(C(C)(C)C)c4)c4ccccc34)ccn2)ccc1C(=O)NCCC1CCN(C)CC1 [17(bs), 4-((4-((4-(3-(3-(tert-Butyl)-5-(methylsulfonamido)phenyl)ureido)naphthalen-1-yl)oxy)pyridin-2-yl)amino)-2-methoxy-N-(2-(1-methylpiperidin-4-yl)ethyl)benzamide]
% Viability at 20 μg/mL: 0.3%

COc1cc(Nc2cc(Oc3ccc(NC(=O)Nc4cc(C(C)(C)C)cc(NS(C)(=O)=O)c4OC)c4ccccc34)ccn2)ccc1C(=O)NCCN1CCN(C)CC1(C)C [17(bi), 4-((4-((4-(3-(5-(tert-Butyl)-2-methoxy-3-(methylsulfonamido)phenyl)ureido)naphthalen-1-yl)oxy)pyridin-2-yl)amino)-2-methoxy-N-(2-(2,2,4-trimethylpiperazin-1-yl)ethyl)benzamide]
% Viability at 5 μg/mL: 0.8% | % Viability at 20 μg/mL: 0.6%

CCN1CCN(CCNC(=O)c2ccc(Nc3cc(Oc4ccc(NC(=O)Nc5cc(C(C)(C)C)cc(NS(C)(=O)=O)c5OC)c5ccccc45)ccn3)cc2OC)CC1 [17(be), 4-((4-((4-(3-(5-(tert-Butyl)-2-methoxy-3-(methylsulfonamido)phenyl)ureido)naphthalen-1-yl)oxy)pyridin-2-yl)amino)-N-(2-(4-ethylpiperazin-1-yl)ethyl)-2-methoxybenzamide]
% Viability at 5 μg/mL: 0.7% | % Viability at 20 μg/mL: 0.5%

COc1cc(Nc2nccc(Oc3ccc(NC(=O)Nc4cc(C(C)(C)C)cc(NS(C)(=O)=O)c4OC)c4ccccc34)n2)ccc1C(=O)NCCOCCOCCO [17(by), 4-((4-((4-(3-(5-(tert-Butyl)-2-methoxy-3-(methylsulfonamido)phenyl)ureido)naphthalen-1-yl)oxy)pyrimidin-2-yl)amino)-N-(2-(2-(2-hydroxyethoxy)ethoxy)ethyl)-2-methoxybenzamide]
% Viability at 20 μg/mL: 1.6%

COc1cc(Nc2cc(Oc3ccc(NC(=O)Nc4cc(C(C)(C)C)cc(C(=O)NCCO)c4OC)c4ccccc34)ccn2)ccc1C(=O)NCCN1CC[S+]([O-])CC1 [Example 32, 5-(tert-Butyl)-N-(2-hydroxyethyl)-2-methoxy-3-(3-(4-((2-((3-methoxy-4-((2-(1-oxidothiomorpholino)ethyl)carbamoyl)phenyl)amino)pyridin-4-yl)oxy)naphthalen-1-yl)ureido)benzamide]
% Viability at 20 μg/mL: 2.5%

COc1cc(Nc2cc(Oc3ccc(NC(=O)Nc4cc(C(C)(C)C)cc(NS(C)(=O)=O)c4OC)c4ccccc34)ccn2)ccc1C(=O)N[C@@H]1CCN(C)C1 [17(cq), (R)-4-((4-((4-(3-(5-(tert-Butyl)-2-methoxy-3-(methylsulfonamido)phenyl)ureido)-naphthalen-1-yl)oxy)pyridin-2-yl)amino)-2-methoxy-N-(1-methylpyrrolidin-3-yl)benzamide]
% Viability at 5 μg/mL: 9.0% | % Viability at 20 μg/mL: 0.7%

CCC(=O)NS(=O)(=O)c1ccc(Nc2nccc(Oc3ccc(NC(=O)Nc4cc(C(C)(C)C)cc(NS(C)(=O)=O)c4OC)c4ccccc34)n2)cc1OC [17(bk), N-((4-((4-((4-(3-(5-(tert-Butyl)-2-methoxy-3-(methylsulfonamido)phenyl)ureido)-naphthalen-1-yl)oxy)pyrimidin-2-yl)amino)-2-methoxyphenyl)sulfonyl)propionamide]
% Viability at 1 μg/mL: 93.0%
